Data published in publication PMC7017074 (Cancers, 2020).

Experiments:
[1] = Serum drug concentration following an intravenous injection; type: in vivo, Balb/c mice
Procedure: The mice were sacrificed after 2 h and 24 h of tail-vein injection (n = 5). The organs such as the liver, kidney, heart, spleen, lungs, and brain, as well as the tumor tissues, were isolated and kept in lysis buffer (pH 7.4) and kept at −150 °C in a freezer until further analysis. Additionally, the weights of all the organs and tumor tissues were measured for quantitative analysis of the presence of drug-loaded NPs.
To determine the serum level of total drug-loaded NPs, blood samples of all the mice treated (n = 5) were collected by cardiac puncture using a 1-mL syringe with a 25G needle. A secondary method of euthanasia was performed after a cardiac puncture to sacrifice the animal. The blood samples were collected at two time points of analysis (2 h and 24 h of treatment). The blood samples were allowed to clot by leaving them at room temperature and then centrifuged at 10,000 rpm for 30 min at 4 °C to collect the supernatant serum. Afterward, 100 µL of each serum sample was collected and stored at −80 °C until it was assayed. The fluorescence emission of serum was measured using Perkin Elmer 2030 manager software attached to a 2030 multilabel reader victor X5 (Perkin Elmer) at 485/535 nm. The data were illustrated as means ± SD in RFU/100 µL of serum.

[2] = Animal biodistribution study (organ and tumor distribution of DOX); type: in vivo, Balb/c mice; settings: for DOX in heart / DOX in kidney / DOX in liver / DOX in lungs / DOX in spleen / DOX in tumor: 4T1 tumor mice, IV DOX 5 mg/kg
Procedure: Organs were homogenized and lysed with a lysis reagent (sodium fluoride and stable stock lysis buffer). The mixture was centrifuged at 8000 rpm at 4 °C for 50 min. The supernatant was collected in 1.5-mL microcentrifuge tubes. […] The data were presented as means ± SD in relative fluorescence units (RFU)/mg of organ weight.

4T1 cells = experiment: Tumor regression study in murine breast cancer model; type: in vivo, Balb/c mice
Procedure: Murine breast cancer-derived 4T1 cells were cultured in complete DMEM (cDMEM) medium (pH 7.4) containing 1% penicillin and streptomycin antibiotic and 10% FBS in a 25-cm^2 flask, and the cell-containing flask was placed in a humidified incubator at 37 °C with 5% CO2. The cells were collected from the exponential growth phase and exposed to the trypsinization process, followed by repeated washing through centrifugation steps; they were then stained with trypan blue, counted using a hemocytometer, and then re-suspended in cDMEM medium at a concentration of 10^6 cells/mL. From this cell stock medium, the calculated volume of cell-containing medium was mixed with 100 µL of PBS (pH 7.4) to ensure 10^5 cells/100 µL for injecting in an animal model.
All animals were kept under 12-h/12-h light/dark conditions with free access to ab libitum and water.
Approximately 1 × 10^5 4T1 cells/100 µL in PBS were subcutaneously injected on the mammary pad. […] The length and width of an outgrowth tumor were estimated in mm by using a digital Vernier caliper over the period of 27 days, and the mice were sacrificed humanely via euthanasia, followed by measuring the weight of different organs of the mice. The body weights of mice with an induced tumor were measured in three-day intervals. The tumor volume data were presented as means ± SD of five different mice from each group. The following formula was used to calculate the tumor volume: Tumour volume (mm^3)=1/2 (Length×Width^2).
All the different mixtures with or without the drug were placed in an incubator for 30 min at 37 °C.
For the tumor regression study, one group of tumor-bearing mice was kept untreated as a negative control, the other tumor-bearing mice groups were treated with drug-free NPs or CYP only (dose of 0.3 mg/kg) as a positive control, and the remaining breast tumor-bearing mice were injected with CYP-loaded NPs (dose of 0.3 mg/kg) as a treatment group. […]

[3] = tumor-bearing mice, 25 days, vs untreated group; CYP 0.3 mg/kg BW
Procedure: Approximately 1 × 10^5 4T1 cells/100 µL in PBS were subcutaneously injected on the mammary pad. […] The length and width of an outgrowth tumor were estimated in mm by using a digital Vernier caliper over the period of 27 days, and the mice were sacrificed humanely via euthanasia, followed by measuring the weight of different organs of the mice. The body weights of mice with an induced tumor were measured in three-day intervals. The tumor volume data were presented as means ± SD of five different mice from each group.
For the tumor regression study, one group of tumor-bearing mice was kept untreated as a negative control, the other tumor-bearing mice groups were treated with drug-free NPs or CYP only (dose of 0.3 mg/kg) as a positive control, and the remaining breast tumor-bearing mice were injected with CYP-loaded NPs (dose of 0.3 mg/kg) as a treatment group. […] The treatment was given at day 14 from tumor inoculation through the right or left caudal tail-vein, and the tumor volume was checked throughout the treatment period using a digital Vernier caliper.

COc1cccc2c1C(=O)c1c(O)c3c(c(O)c1C2=O)C[C@@](O)(C(=O)CO)C[C@@H]3O[C@H]1C[C@H](N)[C@H](O)[C@H](C)O1 [Free DOX, doxorubicin]
serum drug concentration, 2 h (%) ([1]; 2 h, Supplementary Table 3): 2.02%
serum drug concentration, 24 h (%) ([1]; 24 h, Supplementary Table 3): 1.71%
serum drug concentration, 2 h ([1]; DOX 5 mg/kg, 2 h): 110.53 ± 11.83 ng/100 μL
blood serum fluorescence, 2 h ([1]; DOX 5 mg/kg, 2 h (Figure 6)): 1008.3 ± 431.41 RFU/100 µL
serum drug concentration, 24 h ([1]; DOX 5 mg/kg, 24 h): 93.74 ± 3.89 ng/100 μL
DOX in heart ([2]; 2 h): 2.86 ± 0.23 ng/mg
DOX in kidney ([2]; 2 h): 1.45 ± 0.01 ng/mg
DOX in liver ([2]; 2 h): 0.3 ± 0.01 ng/mg
DOX in lungs ([2]; 2 h): 0.11 ± 0.01 ng/mg
DOX in spleen ([2]; 2 h): 0.13 ± 0.01 ng/mg
DOX in tumor ([2]; 2 h): 0.37 ± 0.01 ng/mg
DOX in tumor ([2]; 2 h, listed as free DOX): 0.37 ± 0.002 ng/mg
DOX in heart ([2]; 24 h): 4.28 ± 0.63 ng/mg
DOX in kidney ([2]; 24 h): 1.45 ± 0.01 ng/mg
DOX in liver ([2]; 24 h): 1.18 ± 0.31 ng/mg
DOX in lungs ([2]; 24 h): 0.14 ± 0.01 ng/mg
DOX in spleen ([2]; 24 h): 0.14 ± 0.01 ng/mg
DOX in tumor ([2]; 24 h): 0.37 ± 0.01 ng/mg
organ distribution, brain (%) ([2]; 2 h, Supplementary Table 1): 0.13%
organ distribution, heart (%) ([2]; 2 h, Supplementary Table 1): 0.41%
organ distribution, kidney (%) ([2]; 2 h, Supplementary Table 1): 0.42%
organ distribution, liver (%) ([2]; 2 h, Supplementary Table 1): 0.35%
organ distribution, lungs (%) ([2]; 2 h, Supplementary Table 1): 0.08%
organ distribution, spleen (%) ([2]; 2 h, Supplementary Table 1): 0.08%
organ distribution, tumor (%) ([2]; 2 h, Supplementary Table 1): 0.08%
organ distribution, brain (%) ([2]; 24 h, Supplementary Table 2): 0.47%
organ distribution, heart (%) ([2]; 24 h, Supplementary Table 2): 0.62%
organ distribution, kidney (%) ([2]; 24 h, Supplementary Table 2): 0.42%
organ distribution, liver (%) ([2]; 24 h, Supplementary Table 2): 1.38%
organ distribution, lungs (%) ([2]; 24 h, Supplementary Table 2): 0.08%
organ distribution, spleen (%) ([2]; 24 h, Supplementary Table 2): 0.08%
organ distribution, tumor (%) ([2]; 24 h, Supplementary Table 2): 0.08%

O=P1(N(CCCl)CCCl)NCCCO1 (stereo not drawn) [free CYP, cyclophosphamide]
tumor size at first treatment (4T1 cells; day 14 after tumor inoculation, when first treatment was administered): 145.89 ± 33.53 mm^3
tumor size, times less than the untreated group (4T1 cells; day 27): ~3.5
tumor size (4T1 cells; day 27, IV, three doses every two days from day 14, CYP 0.3 mg/kg where drug present): 633.33 ± 121.16 mm^3
body weight gain / visible toxicity [3]: significantly slowed the gain
